For data set [1], the target named is wild-type human cardiac sodium channel, hNav1.5 (late INa) (Homo sapiens, UniProt Q14524). Put plainly: Late INa screening assay (QPatch whole cell patch clamp). In kind it is cell-based. The gist of the method:
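HEK293 cells stably expressing hNav1.5 alpha subunit without beta subunits, QPatch automated whole-cell clamp at 23-25° C, CsF-based internal solution pH 7.4. Late INa induced by 10 μM tefluthrin; 250 ms steps to −20 mV from −120 mV at 0.1 Hz, compounds at 1 μM. Percent block of mean current 225–250 ms into the step.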
For orientation: In patch-clamp work, channel activity is measured electrically.

The target of a further data set is hERG potassium channel (Homo sapiens, UniProt Q12809). The data set can be described thus: hERG screening assay (PatchXpress, CHO cells). In kind it is cell-based. Particulars: % inhibition at 1 μM. The method, then:
Compounds were also tested for their effect to block the hERG K^+ channel.
Compounds were screened to test their activity in blocking the hERG potassium channel at AVIVA Biosciences (San Deigo, Calif., USA). The hERG channel is heterologously expressed in a CHO (Chinese Hamster Ovary) cell line. Cells were maintained with standard tissue culture procedures and stable channel expression was maintained with 500 μg/mL G418 in the culture medium. Cells were harvested for testing on the PatchXpress 7000A automated patch clamp with Accumax (Innovative Cell Technologies, San Diego, Calif.) to isolate single cells.
The following solutions were used for electrophysiological recordings. The external solution contained: 2 mM CaCl2; 2 mM MgCl2; 4 mM KCl; 150 mM NaCl; 10 mM Glucose; 10 mM HEPES (pH 7.4 with 1M NaOH; osmolarity, ˜310 mOsm). The internal solution contained: 140 mM KCl, 10 mM MgCl2, 6 mM EGTA, 5 mM HEPES, 5 mM ATP (pH adjusted to 7.25 with KOH; osmolarity, ˜295 mOsm).
hERG channels were activated when the voltage was first stepped to −50 mV for 300 ms from the −80 mV holding potential and then stepped to +20 mV for 5 seconds. At +20 mV the channels open and then largely inactivate, so the currents are relatively small. Upon returning to −50 mV from +20 mV, hERG currents transiently become much larger as inactivation is rapidly removed and then the channel closes. The first step to −50 mV for 300 ms was used as a baseline for measuring the peak amplitude during the step to −50 mV after channel activation. The peak tail current at −50 mV was measured both under control conditions and after addition of compound, each cell serving as its own control.
All compounds were prepared as 10 mM DMSO stocks in glass vials. Stock solutions were mixed by vigorous vortexing and sonication for about 2 minutes at room temperature. For testing, compounds were diluted in glass vials using an intermediate dilution step in pure DMSO and then further diluted to working concentrations in external solution. Dilutions were prepared no longer than 20 minutes before use.
For the electrophysiological recordings, after achieving the whole-cell configuration, cells were monitored for 90 seconds to assess stability and washed with external solution for 66 seconds. The voltage protocol described above was then applied to the cells every 12 seconds and throughout the whole procedure. Only cells with stable recording parameters and meeting specified health criteria were allowed to enter the compound addition procedure.
External solution containing 0.1% DMSO (vehicle) was applied to the cells first to establish the control peak current amplitude. After allowing the current to stabilize for 3 to 5 minutes, 1 μM and then 10 μM test compounds were applied. Each compound concentration was added 4 times and cells were kept in test solution until the effect of the compound reached steady state or for a maximum of 12 minutes. After addition of test compound, a positive control (1 μM Cisapride) was added and must block >95% of the current for the experiment to be considered valid. Washout in the external solution compartment was performed until the recovery of the current reached steady state.
On the technique in general: hERG is a cardiac potassium channel; its block is linked to QT prolongation.

Data set [2] in a line: Microsomal stability assay, human. In kind it is in vitro ADME. As to conditions: metabolic stability, human liver microsomes 0.5 mg/mL, substrate 3 uM. The method in brief: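 Liver microsomes at 0.5 mg/mL protein in 100 mM KPO4 buffer, incubated with 3 uM compound and NADPH-regenerating system, run in duplicate. Samples taken at 2, 12, 25, 45 and 65 min and quenched in MeOH/ACN/water before analysis.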
For orientation: Microsomes from liver hold many membrane-bound enzymes, among them those of drug oxidation.

Setting [3] is: % inhibition at 1 μM, read-out: NAv1.5*-LATE-.
Where [4] appears, read: percent block of late INa, compound at 1 μM, 10 μM Tefluthrin, HEK293 hNav1.5, read-out: Late INa 1 μM.

Each structure is given as a SMILES string. Like-named read-outs stand apart in the source and are kept apart here.

Chain of hERG potassium channel (Q12809 whole entry): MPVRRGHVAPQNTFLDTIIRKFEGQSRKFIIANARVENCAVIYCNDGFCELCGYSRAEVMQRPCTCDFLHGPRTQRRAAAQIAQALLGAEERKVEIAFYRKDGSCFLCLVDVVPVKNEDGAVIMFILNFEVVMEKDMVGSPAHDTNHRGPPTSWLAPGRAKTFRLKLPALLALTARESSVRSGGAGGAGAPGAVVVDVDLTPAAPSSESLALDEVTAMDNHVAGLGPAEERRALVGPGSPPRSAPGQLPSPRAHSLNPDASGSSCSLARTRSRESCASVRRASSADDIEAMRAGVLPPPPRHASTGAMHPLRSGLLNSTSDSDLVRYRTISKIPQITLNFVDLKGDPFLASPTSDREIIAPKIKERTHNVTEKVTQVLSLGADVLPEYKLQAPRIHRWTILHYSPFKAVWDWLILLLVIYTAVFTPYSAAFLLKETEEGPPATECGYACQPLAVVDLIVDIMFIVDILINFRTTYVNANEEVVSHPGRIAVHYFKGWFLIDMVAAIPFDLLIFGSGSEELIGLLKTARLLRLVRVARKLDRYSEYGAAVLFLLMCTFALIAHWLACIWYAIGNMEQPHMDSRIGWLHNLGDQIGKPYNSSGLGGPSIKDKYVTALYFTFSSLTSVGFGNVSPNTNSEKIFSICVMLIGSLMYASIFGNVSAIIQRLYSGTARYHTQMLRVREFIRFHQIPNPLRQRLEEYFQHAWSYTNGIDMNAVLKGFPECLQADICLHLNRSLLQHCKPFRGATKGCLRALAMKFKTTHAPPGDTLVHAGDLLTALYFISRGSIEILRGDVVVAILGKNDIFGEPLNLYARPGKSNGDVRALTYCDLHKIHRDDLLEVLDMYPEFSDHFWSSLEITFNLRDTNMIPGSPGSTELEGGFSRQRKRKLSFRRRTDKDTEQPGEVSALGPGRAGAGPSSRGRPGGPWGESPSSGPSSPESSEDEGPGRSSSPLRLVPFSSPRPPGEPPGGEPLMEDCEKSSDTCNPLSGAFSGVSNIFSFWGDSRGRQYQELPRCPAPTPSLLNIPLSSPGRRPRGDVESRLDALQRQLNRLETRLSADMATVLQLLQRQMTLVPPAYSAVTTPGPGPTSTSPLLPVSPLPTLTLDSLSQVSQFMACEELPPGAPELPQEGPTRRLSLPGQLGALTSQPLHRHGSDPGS
Chain of wild-type human cardiac sodium channel, hNav1.5 (late INa) (Q14524 whole entry): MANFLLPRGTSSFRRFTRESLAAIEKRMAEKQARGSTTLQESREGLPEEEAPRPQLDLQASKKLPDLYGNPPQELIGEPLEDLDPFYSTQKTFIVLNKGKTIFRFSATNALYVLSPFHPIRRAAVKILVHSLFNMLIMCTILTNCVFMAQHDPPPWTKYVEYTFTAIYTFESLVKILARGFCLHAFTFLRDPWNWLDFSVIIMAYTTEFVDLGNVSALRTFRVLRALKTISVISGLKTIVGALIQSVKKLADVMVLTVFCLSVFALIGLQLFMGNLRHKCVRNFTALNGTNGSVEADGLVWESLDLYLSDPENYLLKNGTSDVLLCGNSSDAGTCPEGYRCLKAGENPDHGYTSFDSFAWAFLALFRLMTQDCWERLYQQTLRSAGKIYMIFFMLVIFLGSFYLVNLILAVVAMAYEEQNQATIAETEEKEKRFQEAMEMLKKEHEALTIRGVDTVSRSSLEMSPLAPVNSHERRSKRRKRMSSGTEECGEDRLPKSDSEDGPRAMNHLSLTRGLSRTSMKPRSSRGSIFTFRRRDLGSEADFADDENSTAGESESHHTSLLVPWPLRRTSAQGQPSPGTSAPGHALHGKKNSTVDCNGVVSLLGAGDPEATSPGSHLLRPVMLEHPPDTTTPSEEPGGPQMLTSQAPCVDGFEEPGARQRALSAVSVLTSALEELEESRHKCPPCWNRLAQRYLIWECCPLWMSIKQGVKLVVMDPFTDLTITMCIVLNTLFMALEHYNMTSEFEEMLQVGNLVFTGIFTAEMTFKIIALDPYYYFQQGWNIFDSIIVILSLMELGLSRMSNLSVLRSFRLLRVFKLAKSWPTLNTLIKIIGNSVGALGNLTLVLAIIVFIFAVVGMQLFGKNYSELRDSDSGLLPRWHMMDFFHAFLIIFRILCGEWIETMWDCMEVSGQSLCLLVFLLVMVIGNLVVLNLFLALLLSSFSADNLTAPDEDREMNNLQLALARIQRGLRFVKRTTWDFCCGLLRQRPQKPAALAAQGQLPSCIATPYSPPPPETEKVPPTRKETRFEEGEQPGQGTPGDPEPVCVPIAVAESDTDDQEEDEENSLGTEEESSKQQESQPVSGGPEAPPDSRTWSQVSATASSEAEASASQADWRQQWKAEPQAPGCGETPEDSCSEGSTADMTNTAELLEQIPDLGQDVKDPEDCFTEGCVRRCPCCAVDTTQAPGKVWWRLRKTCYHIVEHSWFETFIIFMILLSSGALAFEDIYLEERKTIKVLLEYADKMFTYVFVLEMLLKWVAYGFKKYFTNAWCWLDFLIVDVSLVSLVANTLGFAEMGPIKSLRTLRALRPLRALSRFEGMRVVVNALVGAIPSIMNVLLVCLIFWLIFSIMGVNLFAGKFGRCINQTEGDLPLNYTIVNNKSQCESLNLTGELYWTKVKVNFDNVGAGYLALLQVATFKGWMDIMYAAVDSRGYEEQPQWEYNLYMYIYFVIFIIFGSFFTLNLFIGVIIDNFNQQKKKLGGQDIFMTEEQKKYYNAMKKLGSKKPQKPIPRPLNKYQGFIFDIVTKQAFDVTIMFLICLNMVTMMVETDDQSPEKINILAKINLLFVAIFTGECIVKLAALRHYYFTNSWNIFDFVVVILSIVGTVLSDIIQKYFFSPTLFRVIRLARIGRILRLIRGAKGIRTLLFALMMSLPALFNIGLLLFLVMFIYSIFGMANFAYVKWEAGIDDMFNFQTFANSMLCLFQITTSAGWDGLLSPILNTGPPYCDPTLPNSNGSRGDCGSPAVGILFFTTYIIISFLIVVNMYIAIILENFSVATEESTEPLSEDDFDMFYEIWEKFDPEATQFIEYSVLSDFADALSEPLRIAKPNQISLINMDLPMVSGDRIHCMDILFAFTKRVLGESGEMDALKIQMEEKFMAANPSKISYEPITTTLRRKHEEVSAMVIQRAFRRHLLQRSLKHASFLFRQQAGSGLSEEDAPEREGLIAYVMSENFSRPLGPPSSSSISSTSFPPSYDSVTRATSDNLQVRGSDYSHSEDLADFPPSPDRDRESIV

As to `Cc1nc(Cn2cnc3ccc(-c4ccc(OC(F)(F)F)cc4)cc3c2=O)no1` [IV-9, 3-((5-methyl-1,2,4-oxadiazol-3-yl)methyl)-6-(4-(trifluoromethoxy)phenyl)quinazolin-4(3H)-one], the inhibition at 1 µM in data set [1] (setting [3]) and in data set [1] (setting [4]) was 42% throughout. Besides, the “HERG*” value on hERG potassium channel is on record as less than 10%. Besides, the MS Human THalf in data set [2] was greater than 395 min.

Take `O=C1c2cc(-c3ccc(OC(F)(F)F)cc3)ccc2CCN1Cc1ncccn1` [IX-1, 2-(pyrimidin-2-ylmethyl)-7-(4-(trifluoromethoxy)phenyl)-3,4-dihydroisoquinolin-1(2H)-one]: the inhibition at 1 µM in data set [1] (setting [3]) and in data set [1] (setting [4]) was 32% in each case. For the same compound, the “HERG*” value at hERG potassium channel is on record as 17%. In data set [2], this compound came in with an MS Human THalf greater than 395 min.

For the compound `O=C1c2cc(-c3ccc(C(F)(F)F)cc3)ccc2CCN1Cc1ncccn1` [IX-3, 2-(pyrimidin-2-ylmethyl)-7-(4-(trifluoromethyl)phenyl)-3,4-dihydroisoquinolin-1(2H)-one], the inhibition at 1 µM in data set [1] (setting [3]) and in data set [1] (setting [4]) was 29% each time. At hERG potassium channel, the “HERG*” value is listed as 14%. The compound also displayed an MS Human THalf in data set [2] of 304 min.

As to `O=C(c1ncccn1)N1CCc2ccc(-c3ccc(C(F)(F)F)cc3)cc2C1` [IX-7, pyrimidin-2-yl(7-(4-(trifluoromethyl)phenyl)-3,4-dihydroisoquinolin-2(1H)-yl)methanone], the inhibition at 1 µM in data set [1] (setting [3]) and in data set [1] (setting [4]) was 46% in each case. Besides, the “HERG*” value on hERG potassium channel is reported as less than 10%. Further, the MS Human THalf in data set [2] was greater than 395 min.

As to `O=C(c1cccnn1)N1CCc2ccc(-c3ccc(C(F)(F)F)cc3)cc2C1` [IX-17, Pyridazin-3-yl(7-(4-(trifluoromethyl)phenyl)-3,4-dihydroisoquinolin-2 (1H)-yl) methanone], the inhibition at 1 µM in data set [1] (setting [3]) and in data set [1] (setting [4]) was 39% in each case. The “HERG*” value at hERG potassium channel was 76%. In addition, the MS Human THalf in data set [2] is 257 min.

Regarding `Cn1cnc(C(=O)N2CCc3ccc(-c4ccc(C(F)(F)F)cc4)cc3C2)c1` [IX-39, (1-methyl-1H-imidazol-4-yl)(7-(4-(trifluoromethyl)phenyl)-3,4-dihydroisoquinolin-2(1H)-yl)methanone], the inhibition at 1 µM in data set [1] (setting [3]) and in data set [1] (setting [4]) was 30% throughout. Moreover, the “HERG*” value on hERG potassium channel was determined as 35%. The MS Human THalf in data set [2] was greater than 395 min.

With `O=C1c2cc(-c3ccc(OC(F)(F)F)cc3)ccc2OCN1Cc1ccccn1` [VIII-3, 3-(pyridin-2-ylmethyl)-6-(4-(trifluoromethoxy)phenyl)-2H-benzo[e][1,3]oxazin-4(3H)-one], the inhibition at 1 µM in data set [1] (setting [3]) and in data set [1] (setting [4]) was 58% throughout. Moreover, on hERG potassium channel, the “HERG*” value was less than 10%. Moreover, the MS Human THalf in data set [2] is 285 min.

Regarding `CC1Oc2ccc(-c3ccc(OC(F)(F)F)cc3)cc2C(=O)N1Cc1ncccn1` (centres unmarked) [VIII-7, 2-methyl-3-(pyrimidin-2-ylmethyl)-6-(4-(trifluoromethoxy)phenyl)-2H-benzo[e][1,3]oxazin-4(3H)-one], the inhibition at 1 µM in data set [1] (setting [3]) and in data set [1] (setting [4]) was 22% in each case. The “HERG*” value at hERG potassium channel is less than 10%. Also, in data set [2], the MS Human THalf came out at 221 min.
